How the values were obtained:
[1] = Displacement of [3H]colchicine from tubulin; details: concentration not given here
[2] = Inhibition of tubulin polymerization
[3] = Toxicity in brine shrimp; format: organism-based; details: artemia, in vivo; read-out: LD50 (the source's name)
L1210 = assay: Cytotoxicity against mouse L1210 cells; format: functional, cell-based
CA46 = assay: Cytotoxicity against human CA46 cells; format: functional, cell-based

Q: With `C=CC[C@@H](CC/C(C)=C/C=C/CC/C=C\[C@@H]1CSC([C@@H]2C[C@@H]2C)=N1)OC` [CURACIN A] as the compound, how does the inhibition [1] read?
A: 96%

Q: What about the IC50 [2] of the same compound?
A: 1400 nM

Q: And the LC50 [3]?
A: 8 nM

Q: Which Activity (L1210) does the source give for `C=CC[C@@H](CC/C(C)=C/C=C\CC/C=C\[C@@H]1CSC([C@@H]2C[C@@H]2C)=N1)OC` [CURACIN B] here?
A: Toxic

Q: What about the LC50 [3] of the same compound?
A: 38 nM

Q: What about the Activity (CA46) of the same compound?
A: Toxic

Q: For `C=CC[C@@H](CC/C(C)=C\C=C\CC/C=C\[C@@H]1CSC([C@@H]2C[C@@H]2C)=N1)OC` [CURACIN C], which Activity (L1210) is on record?
A: Toxic

Q: What about the LC50 [3] of the same compound?
A: 54 nM

Q: And the Activity (CA46)?
A: Toxic
